Molecular target: Steroidogenic factor 1 (Homo sapiens, UniProt Q13285)
Test: activation of SF-1 LBD reporter – cell-based, CHO-K1, Gal4-SF-1 LBD, luciferase luminescence, dose response (AID 692)
[1] = inactive by the depositor's call

Sequence of Steroidogenic factor 1 (Q13285 whole entry, the tested form may be a part): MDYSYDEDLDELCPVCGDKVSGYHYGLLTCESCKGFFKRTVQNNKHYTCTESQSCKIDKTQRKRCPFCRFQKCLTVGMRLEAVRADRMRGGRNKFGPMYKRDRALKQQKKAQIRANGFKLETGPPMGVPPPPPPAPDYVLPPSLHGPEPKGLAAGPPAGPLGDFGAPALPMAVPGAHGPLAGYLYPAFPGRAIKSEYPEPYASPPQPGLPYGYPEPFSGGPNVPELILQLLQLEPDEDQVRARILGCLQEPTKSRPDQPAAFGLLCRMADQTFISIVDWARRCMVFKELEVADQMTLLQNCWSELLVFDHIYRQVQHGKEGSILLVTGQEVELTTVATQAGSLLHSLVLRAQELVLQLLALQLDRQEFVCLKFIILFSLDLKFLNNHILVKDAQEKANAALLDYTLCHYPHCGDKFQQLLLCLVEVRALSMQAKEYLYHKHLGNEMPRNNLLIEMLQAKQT

EC50 | EC50 [1] | SMILES
401 nM |  | COc1ccc(C(=O)CC=Nc2cccc(C)n2)cc1OC
466 nM |  | CC(=O)c1c(C)[nH]c(C(=O)Nc2ccc3c(c2)OCCO3)c1C
827 nM |  | COc1ccc2c(c1OC)C(=O)N1c3ccccc3SC21 (stereo not given) [1,2-dimethoxy-4bH-isoindolo[1,2-b][1,3]benzothiazol-11-one]
1160 nM |  | O=C(CSc1ccccn1)c1ccc2c(c1)OCO2 [1-(1,3-benzodioxol-5-yl)-2-(2-pyridinylthio)ethanone]
396 nM |  | O=C(COc1ncnc2ccccc12)c1ccc2c(c1)OCCO2 [1-(2,3-dihydro-1,4-benzodioxin-6-yl)-2-(4-quinazolinyloxy)ethanone]
585 nM |  | CCCn1c(C)cc(C(=O)COc2ncnc3sccc23)c1C [1-(2,5-dimethyl-1-propyl-3-pyrrolyl)-2-(4-thieno[2,3-d]pyrimidinyloxy)ethanone]
2430 nM |  | N#CCc1ccc(NC(=O)Nc2cccc(Cl)c2)cc1 [1-(3-chlorophenyl)-3-[4-(cyanomethyl)phenyl]urea]
386 nM |  | CN(C)c1ccc(NC(=O)Nc2cccc(Cl)c2)cc1 [1-(3-chlorophenyl)-3-[4-(dimethylamino)phenyl]urea]
2800 nM |  | Clc1ccc(-n2ncc3c(NCc4ccccn4)ncnc32)cc1 [1-(4-chlorophenyl)-N-(2-pyridinylmethyl)-4-pyrazolo[3,4-d]pyrimidinamine]
572 nM |  | COc1ccc2nc(Nc3nc(C)c(C(C)=O)s3)sc2c1 [1-[2-[(6-methoxy-1,3-benzothiazol-2-yl)amino]-4-methyl-1,3-thiazol-5-yl]ethanone]
 | 11300 nM | O=C(Cc1ccccc1)n1nc(-c2ccccc2)nc1NCc1ccco1 [1-[5-(2-furanylmethylamino)-3-phenyl-1,2,4-triazol-1-yl]-2-phenylethanone]
 | 13700 nM | Fc1cnc(N2CCOCC2)nc1N1CCc2ccccc21 [1-[5-fluoro-2-(4-morpholinyl)-4-pyrimidinyl]indoline]
2170 nM |  | CCOC(=O)C1CCN(S(=O)(=O)c2ccc(-c3nc4ccccc4s3)s2)CC1 [1-[[5-(1,3-benzothiazol-2-yl)-2-thienyl]sulfonyl]isonipecotic acid ethyl ester]
1320 nM |  | COc1ccc2c(c1)CCc1c(C(=O)N3CCCCCC3)noc1-2 [1-azepanyl-(7-methoxy-4,5-dihydrobenzo[g][1,2]benzoxazol-3-yl)methanone]
> 11000 nM |  | COc1ccc(CNC(=O)NC2CCCCC2)cc1 [1-cyclohexyl-3-[(4-methoxyphenyl)methyl]urea]
3840 nM |  | COc1ccc(-c2cc(C(=O)N3CCCCC3)no2)cc1OC [1-{[5-(3,4-dimethoxyphenyl)isoxazol-3-yl]carbonyl}piperidine]
1240 nM |  | Cc1cc(C(=O)OCC(=O)N2CCc3ccccc32)c(C)o1 [2,5-dimethyl-3-furancarboxylic acid [2-(2,3-dihydroindol-1-yl)-2-oxoethyl] ester]
138 nM |  | CC(C)(C)n1ncc2c(=O)n(CC(=O)NCc3ccccc3Cl)cnc21 [2-(1-tert-butyl-4-keto-pyrazolo[3,4-d]pyrimidin-5-yl)-N-(2-chlorobenzyl)acetamide]
14600 nM |  | COc1cc(N2CCCC2)c(OC)cc1C=c1sc2nc3ccccc3n2c1=O [2-(2,5-dimethoxy-4-pyrrolidino-benzylidene)thiazolo[3,2-a]benzimidazol-1-one]
9840 nM |  | CCn1c(SCC(=O)c2cccs2)nnc1-c1ccco1 [2-(4-Ethyl-5-furan-2-yl-4H-[1,2,4]triazol-3-ylsulfanyl)-1-thiophen-2-yl-ethanone]
5210 nM |  | CN(C)c1oc(-c2ccc(OCc3ccccc3)cc2)nc1C#N [2-(4-benzoxyphenyl)-5-(dimethylamino)oxazole-4-carbonitrile]
1250 nM |  | CCOc1ccc(N2C(=O)c3ccccc3C2O)cc1 (stereo not given) [2-(4-ethoxyphenyl)-3-hydroxy-3H-isoindol-1-one]
> 99000 nM |  | O=C(CSc1nc2ccccc2o1)Nc1nc2ccccc2s1 [2-(Benzooxazol-2-ylsulfanyl)-N-benzothiazol-2-yl-acetamide]
 | 10900 nM | Cc1cccc(-n2ccnc2SCC(=O)Nc2nccs2)c1 [2-[1-(3-methylphenyl)imidazol-2-yl]sulfanyl-N-(1,3-thiazol-2-yl)acetamide]
410 nM |  | C=CCn1c(C)cc(C(=O)CSc2nc(O)c3ccccc3n2)c1C [2-[2-(2,5-dimethyl-1-prop-2-enyl-pyrrol-3-yl)-2-oxidanylidene-ethyl]sulfanyl-1H-quinazolin-4-one]
434 nM |  | OCCOCCNc1ncnc2c1cnn2-c1ccc(Cl)cc1 [2-[2-[[1-(4-chlorophenyl)-4-pyrazolo[3,4-d]pyrimidinyl]amino]ethoxy]ethanol]
1360 nM |  | CCOC(=O)CSc1nc2ccccc2c(=O)n1NC(=O)c1ccccc1 [2-[(3-benzamido-4-keto-quinazolin-2-yl)thio]acetic acid ethyl ester]
1210 nM |  | CCc1nnc(NC(=O)CSc2nc3c(cc2C#N)CCC3)s1 [2-[(3-cyano-1-pyrindan-2-yl)thio]-N-(5-ethyl-1,3,4-thiadiazol-2-yl)acetamide]

EC50 | EC50 [1] | SMILES
1620 nM |  | CCOC(=O)CSc1nc(-c2ccncc2)ccc1C#N [2-[(3-cyano-6-pyridin-4-yl-2-pyridinyl)thio]acetic acid ethyl ester]
> 3670 nM |  | Cc1csc2nc(CSc3nc4ccccc4o3)cn12 [2-[(3-methyl-6-imidazo[2,1-b]thiazolyl)methylthio]-1,3-benzoxazole]
> 11000 nM |  | Nn1c(SCC(=O)Nc2ccc(F)cc2F)nnc1-c1cccnc1 [2-[(4-amino-5-pyridin-3-yl-1,2,4-triazol-3-yl)sulfanyl]-N-(2,4-difluorophenyl)acetamide]
1690 nM |  | CCc1nnc(NC(=O)CSc2nc(C)c3c(c2C#N)CCCC3)s1 [2-[(4-cyano-1-methyl-5,6,7,8-tetrahydroisoquinolin-3-yl)sulfanyl]-N-(5-ethyl-1,3,4-thiadiazol-2-yl)acetamide]
3760 nM |  | O=C1CCCC(=O)C1=CNc1ccc(O)cc1 [2-[(4-hydroxyanilino)methylidene]cyclohexane-1,3-dione]
> 3670 nM |  | CCOC(=O)CSc1nc(-c2ccc3c(c2)OCO3)ccc1C#N [2-[[6-(1,3-benzodioxol-5-yl)-3-cyano-2-pyridinyl]thio]acetic acid ethyl ester]
 | 11400 nM | O=C(CNc1ccccc1)Nc1ccc(F)cc1 [2-anilino-N-(4-fluorophenyl)acetamide]
477 nM |  | Cc1nc2sc(-c3ccccc3)cc2c(=O)n1-n1cccc1 [2-methyl-6-phenyl-3-(1-pyrrolyl)-4-thieno[2,3-d]pyrimidinone]
989 nM |  | Cc1ccc(C(=O)Nc2nnc(-c3cccs3)s2)cc1C [3,4-dimethyl-N-(5-thiophen-2-yl-1,3,4-thiadiazol-2-yl)benzamide]
1800 nM |  | Cc1ccc(-n2c(C)cc(C(=O)COC(=O)c3c(C)noc3C)c2C)cc1 [3,5-dimethyl-4-isoxazolecarboxylic acid [2-[2,5-dimethyl-1-(4-methylphenyl)-3-pyrrolyl]-2-oxoethyl] ester]
31900 nM |  | COc1cc(C2c3c(c(O)n(-c4ccccc4)c3O)ON2c2ccccc2)ccc1O (stereo not given) [3-(3-methoxy-4-oxidanyl-phenyl)-2,5-diphenyl-3a,6a-dihydro-3H-pyrrolo[3,4-d][1,2]oxazole-4,6-dione]
403 nM |  | COc1ccc2nc3sc(C(=O)NCc4cccs4)c(N)c3cc2c1 [3-Amino-6-methoxy-thieno[2,3-b]quinoline-2-carboxylic acid (thiophen-2-ylmethyl)-amide]
> 3670 nM |  | O=c1c2ccccc2nnn1CSc1nnc(COc2ccc(Cl)cc2)n1Cc1ccco1 [3-[[5-[(4-chloranylphenoxy)methyl]-4-(furan-2-ylmethyl)-1,2,4-triazol-3-yl]sulfanylmethyl]-1,2,3-benzotriazin-4-one]
> 1220 nM |  | COc1cccc(C(=O)Nc2cccc(-c3nnc(-c4ccccc4)o3)c2)c1 [3-methoxy-N-[3-(5-phenyl-1,3,4-oxadiazol-2-yl)phenyl]benzamide]
825 nM |  | COc1ccc(-c2nc3c(Br)c(N)c(Br)cc3o2)cc1 [4,6-bis(bromanyl)-2-(4-methoxyphenyl)-1,3-benzoxazol-5-amine]
> 11000 nM |  | c1ccc2nc3c(nc2c1)c1ccccc1n3CCN1CCOCC1 [4-(2-indolo[3,2-b]quinoxalin-6-ylethyl)morpholine]
1840 nM |  | COc1ccc(CNc2ccc(C(=O)O)cc2)cc1 [4-(p-anisylamino)benzoic acid]
2490 nM |  | CCCOC(=O)c1ccc(NC(=O)C2CCCO2)cc1 (stereo not given) [4-(tetrahydrofuran-2-carbonylamino)benzoic acid propyl ester]
6650 nM |  | COc1cccc2c(O)c(C(=O)NCc3cccs3)cnc12 [4-Hydroxy-8-methoxy-quinoline-3-carboxylic acid (thiophen-2-ylmethyl)-amide]
2270 nM |  | Cc1cccnc1Nc1nc(-c2ccc(O)cc2O)cs1 [4-[2-(3-Methyl-pyridin-2-ylamino)-thiazol-4-yl]-benzene-1,3-diol]
> 11000 nM |  | CC(C)(CC(=O)O)Cc1nc(-c2ccc(Cl)cc2)no1 [4-[3-(4-chlorophenyl)-1,2,4-oxadiazol-5-yl]-3,3-dimethyl-butanoic acid]
> 1220 nM |  | CCOC(=O)N1CCN(S(=O)(=O)c2ccc(C(=O)Nc3sc4c(c3C#N)CCC4)cc2)CC1 [4-[4-[(3-cyano-5,6-dihydro-4H-cyclopenta[b]thiophen-2-yl)carbamoyl]phenyl]sulfonylpiperazine-1-carboxylic acid ethyl ester]
2710 nM |  | COC(=O)c1ccc(C(=O)C(C#N)c2nc3ccccc3s2)cc1 (stereo not given) [4-[(2Z)-2-(3H-1,3-benzothiazol-2-ylidene)-2-cyano-1-oxoethyl]benzoic acid methyl ester]
168 nM |  | Cc1ccc(C(=O)Nc2ncc(Cc3ccccc3)s2)o1 [5-Methyl-furan-2-carboxylic acid (5-benzyl-thiazol-2-yl)-amide]
414 nM |  | Cc1ccc(C(=O)Nc2ncc(Cc3ccc(F)cc3)s2)o1 [5-Methyl-furan-2-carboxylic acid [5-(4-fluoro-benzyl)-thiazol-2-yl]-amide]
 | 11400 nM | O=C(Nc1nccs1)c1ccc(COc2ccc(F)cc2)o1 [5-[(4-fluoranylphenoxy)methyl]-N-(1,3-thiazol-2-yl)furan-2-carboxamide]
2670 nM |  | Nc1c(C(=O)NCc2ccco2)nnn1-c1ccccc1 [5-amino-N-(2-furanylmethyl)-1-phenyl-4-triazolecarboxamide]

— BindingDB's records for doi:10.7270/Q23T9FMP (The Scripps Research Institute Molecular Screening Center, 2007)
